Patent US4469704A, “2,3-Butanediol diester derivatives, process for producing the same, and an antiulcer drug containing the same” (SS Pharmaceutical Co., Ltd., priority 1980, dated 1984)
Like-named read-outs stand apart in the source and are kept apart here.

Legend:
[1] = tested on: ulcer; assay: Antiulcer action: inhibition of indomethacin-induced gastric ulcer (ulcer index) in rats; assay type: in vivo, Wister male rats; conditions: Rattus norvegicus, 1 h before indomethacin (25 mg/kg orally), read-out: Inhibition ratio
Description: Wister male rats each weighing about 200 g were given, after fasting for 24 hours, orally 25 mg/kg of indomethacin suspended in 1% aq. solution of sodium carboxymethylcellulose. Five hours later, 1 ml of physiological saline containing 2% brilliant blue was injected intravenously on their tails, and 10 minutes later, they were slaughtered and their stomachs were removed. After fixation by injecting 12 ml of 1% formalin aq. solution, the stomachs were extended on a flat plate and the injured parts on the stomach was measured with slide calipers. The sum of the lengths in mm was regarded as the ulcer index.
The test compound was emulsified or suspended in physiological saline containing one drop of polysolvate 80, and this was given orally or subcutaneously on the back one hour before administration of indomethacin.
The ulcer inhibition ratio was obtained from the following formula.
Inhibition ratio (%)=A/B×100
A: (ulcer index of control group)--(ulcer index of test group given the test compound)
B: (ulcer index of control group)

[2] = Acute toxicity, intraperitoneal, 7 days observation; assay type: in vivo; conditions: mouse, ip; ddy male mice, intraperitoneally, dissolved in cotton seed oil, observation for seven days
Description: (§1) ddy male mice, arranged in groups each consisting of five mice, were given intraperitoneally 1000 mg/kg of the test compounds Nos. 1-4, 8-10, 14-18, 21, 22, 24, 25, 28, 31, 34, 35, 37, 45, 46, 48, 54, 57, 60, 62, 64, 68, 70, and 71 (as shown in Table 1) dissolved in cotton seed oil.

[3] = tested on: ddy male mice; assay: as above; assay type: in vivo; conditions: 1000 mg/kg intraperitoneally, groups of five ddy male mice
Description: as §1

[4] = tested on: tumor; conditions: Japanese Patent Publication No. 36-13349; cited from earlier work

Row | Compound | inhibition in vivo at 200 mg/kg ([1]; sc, subcutaneously, 5 rats) | LD50 at 168 h [2] | survival / anomaly after seven days [3] | inhibition in vivo at 200 mg/kg ([1]; po, orally, 4 rats) | inhibition in vivo at 300 mg/kg ([1]; sc, 300 mg/kg, subcutaneously, 5 rats) | antitumor effect [4]
1 | CCCCCCCC(=O)OC(C)C(C)OC(=O)CCCCCCC (centres unmarked) [Compound No. 1] | 92% | – | – | – | – | –
2 | CCCCCCCCC(=O)OC(C)C(C)OC(=O)CCCCCCCC (centres unmarked) [Compound No. 2] | 90% | – | – | – | – | –
3 | CCCCCCCCCC(=O)OC(C)C(C)OC(=O)CCCCCCCCC (centres unmarked) [Compound No. 3] | 50% | – | – | – | – | –
4 | CCCCCCCCCCC(=O)OC(C)C(C)OC(=O)CCCCCCCCCC (centres unmarked) [Compound No. 4] | 74% | – | – | – | – | –
5 | CCCCCCCCCCCCCC(=O)OC(C)C(C)OC(=O)CCCCCCCCCCCCC (centres unmarked) [Compound No. 6] | 57% | – | – | – | – | –
6 | CCCCCCCCCCCCCCCC(=O)OC(C)C(C)OC(=O)CCCCCCCCCCCCCCC (centres unmarked) [Compound No. 7] | 30% | – | – | – | – | –
7 | CCCCCC(=O)OC(C)C(C)OC(=O)C=Cc1ccccc1 (centres unmarked) [Compound No. 22] | 91% | > 1000 mg/kg | all the mice lived without any anomaly | – | – | –
8 | CCCCCCCCCC(=O)OC(C)C(C)OC(=O)C=Cc1ccccc1 (centres unmarked) [Compound No. 25] | 95% | > 1000 mg/kg | all the mice lived without any anomaly | – | – | –
9 | CCCCCC(=O)OC(C)C(C)OC(=O)C=Cc1ccc(C)cc1 (centres unmarked) [Compound No. 31] | 91% | > 1000 mg/kg | all the mice lived without any anomaly | – | – | –
10 | CCCCCCCCCCC(=O)OC(C)C(C)OC(=O)C=Cc1ccc(OC)cc1 (centres unmarked) [Compound No. 35] | 77% | > 1000 mg/kg | all the mice lived without any anomaly | – | – | –
11 | CCCCCCCCCCC(=O)OC(C)C(C)OC(=O)C=Cc1cc(OC)c(OC)c(OC)c1 (centres unmarked) [Compound No. 40] | 99% | – | – | – | – | –
12 | CCCCCC(=O)OC(C)C(C)OC(=O)c1cc(OC)c(OC)c(OC)c1 (centres unmarked) [Compound No. 62] | 50% | > 1000 mg/kg | all the mice lived without any anomaly | – | – | –
13 | CCCCCCCCCCC(=O)OC(C)C(C)OC(=O)c1cc(OC)c(OC)c(OC)c1 (centres unmarked) [Compound No. 68] | 89.3% | > 1000 mg/kg | all the mice lived without any anomaly | – | – | –
14 | CCCCCCCCCCC(=O)OC(C)C(C)OC(=O)CCc1ccccc1 (centres unmarked) [Compound No. 70] | 45.9% | > 1000 mg/kg | all the mice lived without any anomaly | – | – | –
15 | CCCCCCCCCCC(=O)OC(C)C(C)OC(=O)COc1ccccc1 (centres unmarked) [Compound No. 71] | 59.2% | > 1000 mg/kg | all the mice lived without any anomaly | – | – | –
16 | CCCCCC=CCC=CCCCCCCCC(=O)OC(C)C(C)OC(=O)CCCCCCCC=CCC=CCCCCC (centres unmarked) [compound 15] | 47% | – | – | – | – | –

Row | Compound | inhibition in vivo at 200 mg/kg ([1]; sc, subcutaneously, 5 rats) | LD50 at 168 h [2] | survival / anomaly after seven days [3] | inhibition in vivo at 200 mg/kg ([1]; po, orally, 4 rats) | inhibition in vivo at 300 mg/kg ([1]; sc, 300 mg/kg, subcutaneously, 5 rats) | antitumor effect [4]
17 | CCC=CCC=CCC=CCCCCCCCC(=O)OC(C)C(C)OC(=O)CCCCCCCC=CCC=CCC=CCC (centres unmarked) [compound 16] | 86% | – | – | – | – | –
18 | CCCCCCCCCCC(=O)OC(C)C(C)OC(=O)CCCCC (centres unmarked) [compound 17] | 37% | – | – | – | – | –
19 | CCCCCCCC/C=C\CCCCCCCC(=O)OC(C)C(C)OC(=O)CCCCCCCCCC (centres unmarked) [compound 21] | – | > 1000 mg/kg | all the mice lived without any anomaly | – | – | –
20 | CCCCCCCCC(=O)OC(C)C(C)OC(=O)C=Cc1ccccc1 (centres unmarked) [compound 24] | 90% | > 1000 mg/kg | all the mice lived without any anomaly | – | – | –
21 | C=CCCCCCCCCC(=O)OC(C)C(C)OC(=O)C=Cc1ccccc1 (centres unmarked) [compound 28] | 62% | > 1000 mg/kg | all the mice lived without any anomaly | – | – | –
22 | CCCCCC(=O)OC(C)C(C)OC(=O)C=Cc1ccc(OC)cc1 (centres unmarked) [compound 34] | 75% | > 1000 mg/kg | all the mice lived without any anomaly | – | – | –
23 | CCCCCC(=O)OC(C)C(C)OC(=O)C=Cc1ccc(Cl)cc1 (centres unmarked) [compound 37] | 85% | > 1000 mg/kg | all the mice lived without any anomaly | – | – | –
24 | CCCCCCCC(=O)OC(C)C(C)OC(=O)C(C#N)=Cc1ccccc1 (centres unmarked) [compound 45] | 84% | > 1000 mg/kg | all the mice lived without any anomaly | – | – | –
25 | CCCCCCCCC(=O)OC(C)C(C)OC(=O)C(C#N)=Cc1ccccc1 (centres unmarked) [compound 46] | 56% | > 1000 mg/kg | all the mice lived without any anomaly | – | – | –
26 | CCCCCCCCCCC(=O)OC(C)C(C)OC(=O)C(C#N)=Cc1ccccc1 (centres unmarked) [compound 48] | – | > 1000 mg/kg | all the mice lived without any anomaly | 84% | 96% | –
27 | CCCCCC(=O)OC(C)C(C)OC(=O)C(C)=Cc1ccccc1 (centres unmarked) [compound 54] | 87% | > 1000 mg/kg | all the mice lived without any anomaly | – | – | –
28 | CC(=Cc1ccccc1)C(=O)OC(C)C(C)OC(=O)C(C)=Cc1ccccc1 (centres unmarked) [compound 57] | 80% | > 1000 mg/kg | all the mice lived without any anomaly | – | – | –
29 | CCCCCC(=O)OC(C)C(C)OC(=O)c1ccc(OC)cc1 (centres unmarked) [compound 60] | 41.4% | > 1000 mg/kg | all the mice lived without any anomaly | – | – | –
30 | CCCCCCCCCCC(=O)OC(C)C(C)OC(=O)c1ccccc1 (centres unmarked) [compound 64] | 41.3% | > 1000 mg/kg | all the mice lived without any anomaly | – | – | –
31 | coixenolide | – | – | – | – | – | has an antitumor effect
